Experimental findings from BindingDB's records for doi:10.1021/jm00076a014 (Zeneca Pharmaceuticals, 1994) are described below.

Molecules are shown by their SMILES.

The assay addresses prolyl 4-hydroxylase (collagen, EC 1.14.11.2). Kind of assay: Inhibition of prolyl 4-hydroxylase by chromatographic determination of [14C]-succinic acid on ion-exchange minicolumna.

What is called IC50 is the midpoint of a concentration-inhibition curve. Low readings indicate greater potency, high ones weaker potency. The compound `O=C(NS(=O)(=O)c1ccccc1)c1ccc(-c2ccc(C(=O)NS(=O)(=O)c3ccccc3)cn2)nc1` [3-phenylsulfonamidocarbonyl-6-(5-phenylsulfonamidocarbonyl-2-pyridyl)pyridine] showed a concentration for half-maximal inhibition (IC50) of 5.04 µM.

Consider `CCOc1ccc(NC(=O)c2ccc(-c3ccc(C(=O)O)cn3)nc2)cc1` [5'-(4-Ethoxy-phenylcarbamoyl)-[2,2']bipyridinyl-5-carboxylic acid], for which the IC50 was determined as 0.32 µM.
